ChEMBL document CHEMBL4823326 (ACS Med Chem Lett, 2021)

The compounds below were run on HEK293 (assay: Induction of autophagy in human HEK293 cells expressing GFP-LC3B-RFP assessed as decrease in fluorescence at 10 uM after 24 hrs by multilabel counter method).
Type: functional
Parameters: scale not given: the % may be the effect or the level left

`N#C[C@@H]1CCCN1C(=O)[C@@H]1CCCN1C(=O)CCCc1ccccc1` showed an Activity of 89%.

Each compound was assayed against Prolyl endopeptidase (Sus scrofa, UniProt P23687) (assay: Inhibition of recombinant porcine PREP expressed in Escherichia coli using Suc-Gly-Pro-AMC as substrate preincubated for 30 mins followed by substrate addition and measured after 60 mins by multilabel counter analysis).
Prolyl endopeptidase, sequence (P23687 whole entry): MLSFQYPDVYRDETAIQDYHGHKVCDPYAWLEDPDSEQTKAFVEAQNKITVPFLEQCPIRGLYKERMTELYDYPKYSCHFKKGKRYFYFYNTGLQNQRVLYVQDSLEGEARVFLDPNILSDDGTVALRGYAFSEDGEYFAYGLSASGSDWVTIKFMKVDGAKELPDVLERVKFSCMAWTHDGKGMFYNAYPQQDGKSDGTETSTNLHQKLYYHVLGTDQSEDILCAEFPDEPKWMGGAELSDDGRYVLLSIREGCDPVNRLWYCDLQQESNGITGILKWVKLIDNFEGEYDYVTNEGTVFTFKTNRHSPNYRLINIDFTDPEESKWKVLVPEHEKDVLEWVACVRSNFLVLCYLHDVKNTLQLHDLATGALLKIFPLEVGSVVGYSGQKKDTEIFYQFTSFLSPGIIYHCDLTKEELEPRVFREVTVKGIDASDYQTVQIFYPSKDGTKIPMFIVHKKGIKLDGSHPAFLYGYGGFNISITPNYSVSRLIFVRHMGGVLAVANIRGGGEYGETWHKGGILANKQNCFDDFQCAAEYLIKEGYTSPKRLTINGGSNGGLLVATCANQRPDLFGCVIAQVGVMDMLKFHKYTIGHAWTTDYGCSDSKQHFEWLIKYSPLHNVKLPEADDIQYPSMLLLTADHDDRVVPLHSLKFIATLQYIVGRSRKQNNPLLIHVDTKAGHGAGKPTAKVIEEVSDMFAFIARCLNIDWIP

First: C[C@H](NC(=O)CCCc1ccccc1)C(=O)N1CCC[C@H]1c1nnc[nH]1
Second: O=C(CCCc1ccccc1)N1CCC[C@H]1C(=O)N1CCC[C@H]1c1nnc[nH]1
The IC50 of the first is 1.9-fold higher: 55 µM for the first, 29 µM for the second.

Going from `Cn1nnc([C@@H]2CCCN2C(=O)[C@@H]2CCCN2C(=O)CCCc2ccccc2)n1` to `O=C(CCCc1ccccc1)N1CCC[C@H]1C(=O)N1CCC[C@H]1c1ccn[nH]1`, the IC50 rises from 12 µM to 70 µM (5.8-fold).

With `CN(CC(=O)N1CCC[C@H]1c1nnn[nH]1)C(=O)CCc1ccccc1` the IC50 was 62 µM.
